Entries after “also recorded” stand apart in the source; their conditions may differ.
Tests used:
[1] = Emotional conditioning response (CER) in rats (Brady, Skinner box); format: in vivo
Text: The method utilized that was published by Brady (1956) using a Skinner Box and a combination of a sound, a light and an electrical shock to produce anxiety in the test animals.
The more an animal is anxious, the less important is the score. When a test compound is a powerful anxiolytic, the value of the score is proportional to the dosage.

[2] = Aggressive behavior elicited by foot shock; format: in vivo; settings: oral
Text: The aggressive behavior of test animals was elicited by a conventional foot shock procedure after administration of Compounds 1 and 4.

[3] = Acute toxicity comparison (LD50, Litchfield and Wilcoxan); settings: in vivo; Table 11; oral; species not given
Description: Toxicity in test animals to the test compounds in terms of LD50 after oral and intraperitoneal administration was determined according to the procedure of Litchfield and Wilcoxan (1949) and the hypnotic effect on test animals was determined in accordance with the method of Janssen (1959).

[4] = Cortical and hippocampal arousal thresholds on stimulation of MRF, median thalamus and posterior hypothalamus; format: in vivo; settings: 7.5 mg/kg intragastric
Description: The test animals in this study were prepared by the techniques described by Monnier and Gangloff under the preceding study (infra B, page 30). Stimulation consisted of a series of waves delivered at a frequency of 200 c/sec., lasting 0.3 m sec., with a total duration of the stimulus being 5 sec. These shocks were delivered by a Neurovar neurostimulator (Alvar Electronic) coupled with a CRC cathode oscilloscope (type OC 343). Cerebral electrical activity was recorded on a REEGA MINI HUIT electroencephalograph (Alvar Electronic). The test animals were kept in restraint cages in a relatively soundproof room.
The activity of compounds 1 and 4 was tested in a series of six test animals for each compound, with a single dose of 7.5 mg/kg administered by the intragastric route. In each animal, the arousal threshold was determined for two of the three structures tested so that for each compound, each of the three structures stimulated were tested four times.
In making the baseline tracing, the threshold voltage was determined by a finding that the duration of the arousal reaction produced by the 5-second stimulation exceeded the duration of the stimulation by at least 5 seconds, that is, for a minimum of 10 seconds.
The various thresholds were determined every 45 minutes after administration of the compounds, for a total period of four and one-half hours.
The critical value for raising of a threshold was fixed at 0.1 volts. This constituted the maximum variation recorded during 41/2 hours in the control animals.
The results were taken in two forms and then summarized. In the first result, each animal was observed, yielding the values for the thresholds recorded at each time interval as well as the ratios of the values obtained in each of the stimulated structures.

[5] = Spontaneous mobility (Svenson and Thieme); format: in vivo; settings: po; read-out: oral ED50 (depressing spontaneous mobility)
Description: Spontaneous mobility in test animals was determined by the Svenson and Thieme procedure as published in Psychopharmacologia, Vol. 14, 1969, pages 157 et seq.

[6] = ECoG and sedation in test animals free to move; format: in vivo
Description: Some test animals were kept in restraint cases placed in a relatively soundproof room and some were left free to move in metal cases measuring 40×50×30 cm, which were also kept in a relatively quiet environment.
In the test animals which were free to move, the first signs of sedation produced by the intragastric administration of 7.5 mg/kg of compounds 1 and 4 appeared, respectively, at 16 minutes (compound 1) and at 8 minutes (compound 4). […] The duration of the effect was, however, shorter, not exceeding 3 hours under these conditions in contrast to the 5 hour minimum for restricted animals.

[7] = Rotarod test, equilibrium (Table 6); format: in vivo
[8] = Comparative tranquilizing effects: four plates test; format: in vivo
Text: The method utilized was the 4 plates test of J. R. Boissier, et al (European J. of Pharm. 1968, Vol. 4, pages 145-151).

[9] = Potentiation of narcotic effect of Veronal; settings: in vivo
[10] = Electrogenesis of various subcortical centers; format: in vivo
Description: This study was conducted with test animals weighing between 2.6 and 2.8 kg, following the stereotaxic method of Monnier and Gangloff (Atlas et techniques stereotaxique pour le cerveau du lopin eveille, 1961, Elsevier Pub. Co.), permitting the stimulation of certain subcortical structures as well as a simultaneous detection and recording of their electrical activities, which were compared to that of reference cortical electrodes. In this study, the subcortical centers considered were the caudate nucleus, the dorsal hippocampus, the lateral thalamus, the mesenephalic reticular formation, and the hypothalamic reticular formation. Test compounds 1 and 4 were administered by the intragastric route with an identical dose of 7.5 mg/kg.
Spontaneous activity in the subcortical centers of the unanesthetized animals is characterized by desynchronized activity consisting of high amplitude and relatively slow rhythms (4 to 5 c/sec.), alternating with low amplitude rapid rhythms (12 to 13 c/sec.). Tracings from the hippocampus and caudate nucleus sometimes takes the form of bursts, which is less commonly the case from the thalamus. These may occur at the same time as bursts of rapid spikes arising from the frontal cortex. During periods of arousal, this desynchronized activity is followed by a synchronized theta rhythm (7 to 8 c/sec.) from the hippocampus and caudate nucleus and from the median thalamus, whereas the cortical and reticular electrical activities are transformed into ultra-rapid and low voltage rhythms (30μ volts).

[11] = Motor coordination in rats (rotarod, Dunham and Miya 1957)
[12] = Effect on muscular relaxation in mice (30° inclined screen, Randall); format: in vivo
Description: The method utilized was the procedure described by Randall (1961) using a 30° inclined screen.

[13] = 7.5 mg/kg intragastric, animals free to move

SMILES: C#CCN1C(=O)CN=C(c2ccccc2Cl)c2cc(Cl)ccc21 [Compound 4, 7-chloro-2,3-dihydro-5-(2-chlorophenyl)-1-propargyl-1,H-1,4-benzodiazepine-2-one]
- Number of Responses, After - CER ([1]; 1.25 mg/kg/os): 86.43 ± 22.13
- Number of Responses, Before - CER ([1]; 1.25 mg/kg/os): 81.28 ± 16.17
- Number of Responses, CER ([1]; 1.25 mg/kg/os): 26.25 ± 4.57
- Number of Responses, After - CER ([1]; 2.5 mg/kg/os): 79.75 ± 15.24
- Number of Responses, Before - CER ([1]; 2.5 mg/kg/os): 66.75 ± 11.80
- Number of Responses, CER ([1]; 2.5 mg/kg/os): 31.12 ± 6.54
- Number of Responses, After - CER ([1]; 5 mg/kg/os): 79.00 ± 20.03
- Number of Responses, Before - CER ([1]; 5 mg/kg/os): 65.00 ± 14.89
- Number of Responses, CER ([1]; 5 mg/kg/os): 38.37 ± 8.76
- ED50 [2]: 2.7 mg/kg
- LD50 [3]: > 5000 mg/kg
- effect on arousal pathways (in words) [4]: substantially raised the cortical and hippocampal arousal thresholds following stimulation of the reticular formation of the brain stem; also recorded: posterior hypothalamus appeared to be little affected; also recorded: moderately reduced in duration
- % of Mean Variation of arousal threshold, Cortex ([4]; MRF stimulation): +311%
- % of Mean Variation of arousal threshold, Hippocampus ([4]; MRF stimulation): +308%
- % of Mean Variation of arousal threshold, Cortex ([4]; Median Thalamus stimulation): +67%
- % of Mean Variation of arousal threshold, Hippocampus ([4]; Median Thalamus stimulation): +67%
- % of Mean Variation of arousal threshold, Cortex ([4]; Posterior Hippocampus): +56%
- % of Mean Variation of arousal threshold, Hippocampus ([4]; Posterior hypothalamus stimulation): +60%
- ED50 [5]: 20.1 mg/kg
- duration of the ECoG effect [6, 13]: ≤ 3 h
- first signs of sedation [6, 13]: 8 min
- duration of ECoG effects (three compounds compared) ([6]; unrestricted animals, compound 3 at 10 mg/kg): about 31/2
- Rotarod Test % of Animals With Unchanged Equilibrium ([7]; 1 mg/kg): 50.0%
- Rotarod Test % of Animals With Unchanged Equilibrium ([7]; 3 mg/kg): 8.3%
- changes in equilibrium / motor coordination ([7]; in vivo): degradation of motor coordination
- ED50 ([8]; 1 h, 60 min. after administration, doses between 0.5 and 4 mg/kg, confidence limits for P = 0.05): 5.5 mg/kg
- Duration of effect ([8]; compounds 1 and 4 compared): comparable
- usability of 4 plates test ([8]; over 3 mg/kg): caused motor activity to be so reduced that 4 plates test
- narcotic effect of a minimal dose of Veronal [9]: potentiate the narcotic effect of a minimal dose of Veronal
- caudate nucleus spikes ([10]; 7.5 mg/kg intragastric): less distinguishable
- duration of slowing of mesencephalic and hypothalamic reticular formation activity ([10]; 7.5 mg/kg intragastric): ≥ 135 min
- thalamic rhythms ([10]; 7.5 mg/kg intragastric): greater amplitude and lower frequency
- EEG activity of the hippocampus ([10]; in vivo): slow and of high amplitude; also recorded: increase the amplitude of these activities and also reduce their frequency
- % Uncoordinated Animals ([11]; 12 mg/kg/os): 37.5%
- % Uncoordinated Animals ([11]; 17 mg/kg/os): 50%
- % Uncoordinated Animals ([11]; 24 mg/kg/os): 87.5%
- Potency Against Comp. 1 ([11]; C.L. (3.09. 6.79), X^2 parallelism 0.005): 4.58
- TD50 ([11]; rat, rotarod, po): 14.9 mg/kg
- % Relaxed Animals ([12]; 2 mg/kg/os): 40%
- % Relaxed Animals ([12]; 8 mg/kg/os): 60%
- % Relaxed Animals ([12]; 32 mg/kg/os): 80%
- Potency Against Comp. 1 ([12]; C.L. (1.67-18.80), X^2 parallelism 2.03): 5.60
- ED50 ([12]; Mus musculus, po, muscular relaxation, read-out: ED50 (and C.L.)): 3.93 mg/kg

From US4313943A, “7-Chloro-2,3-dihydro-5-phenyl-1-propargyl-1H-1,4-benzodiazepine-2-one, and a pharmaceutical composition thereof” (priority 1972, dated 1982)
